Source: article PMC7317212 (Chemmedchem, 2020)
Read-outs that look alike come from different tables or passages of the source.

Experiments:
mGAT4 = molecular target: T1, mGAT4 (Mus musculus, UniProt P31650); assay: GABA uptake inhibition at mGAT4 with varied preincubation time; format: cell-based
T1 construct: expressed in transfected cells; host or cells: HEK293
T1 sequence (P31650 1-627): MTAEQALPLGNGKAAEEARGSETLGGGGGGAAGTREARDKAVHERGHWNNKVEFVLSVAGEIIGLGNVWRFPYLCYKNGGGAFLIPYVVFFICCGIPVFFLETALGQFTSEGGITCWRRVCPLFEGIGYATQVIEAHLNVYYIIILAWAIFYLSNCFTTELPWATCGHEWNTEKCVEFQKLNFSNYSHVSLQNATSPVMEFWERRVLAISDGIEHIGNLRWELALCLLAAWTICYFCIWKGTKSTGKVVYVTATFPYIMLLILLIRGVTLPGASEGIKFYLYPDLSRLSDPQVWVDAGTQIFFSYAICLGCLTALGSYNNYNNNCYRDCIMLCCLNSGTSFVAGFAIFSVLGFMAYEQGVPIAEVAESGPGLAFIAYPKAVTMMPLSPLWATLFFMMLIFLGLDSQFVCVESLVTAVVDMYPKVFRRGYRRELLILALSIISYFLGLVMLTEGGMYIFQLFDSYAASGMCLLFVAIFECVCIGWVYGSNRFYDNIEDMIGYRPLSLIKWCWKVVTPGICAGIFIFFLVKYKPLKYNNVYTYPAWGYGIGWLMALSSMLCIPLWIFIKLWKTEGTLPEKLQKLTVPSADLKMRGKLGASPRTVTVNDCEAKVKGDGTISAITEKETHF

mGAT3 = molecular target: T2, mGAT3 (Mus musculus, UniProt P31649); assay: [^3H]GABA uptake assay, HEK293 cells expressing mGAT3; format: cell-based; conditions: [^3H]GABA uptake; pIC50±SEM
T2 construct: expressed in transfected cells; host or cells: HEK293
T2 sequence (P31649 1-602): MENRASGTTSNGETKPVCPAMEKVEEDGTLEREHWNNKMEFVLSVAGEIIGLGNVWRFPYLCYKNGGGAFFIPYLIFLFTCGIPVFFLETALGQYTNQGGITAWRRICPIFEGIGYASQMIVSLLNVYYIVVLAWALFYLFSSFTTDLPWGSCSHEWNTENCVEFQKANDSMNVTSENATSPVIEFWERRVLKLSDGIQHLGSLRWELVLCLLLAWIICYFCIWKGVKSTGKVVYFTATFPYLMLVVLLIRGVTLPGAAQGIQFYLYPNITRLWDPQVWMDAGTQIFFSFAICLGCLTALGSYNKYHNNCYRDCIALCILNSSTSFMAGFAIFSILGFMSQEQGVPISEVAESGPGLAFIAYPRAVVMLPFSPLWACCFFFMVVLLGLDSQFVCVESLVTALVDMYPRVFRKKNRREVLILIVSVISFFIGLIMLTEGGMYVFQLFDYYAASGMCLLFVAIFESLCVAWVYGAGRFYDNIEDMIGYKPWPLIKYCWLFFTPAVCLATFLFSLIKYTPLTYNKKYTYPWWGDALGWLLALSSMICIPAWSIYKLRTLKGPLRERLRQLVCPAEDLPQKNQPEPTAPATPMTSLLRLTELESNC
Outline: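 HEK293 cells expressing mouse GATs preincubated 25 min at 37 °C with compound in Krebs buffer pH 7.2, then [3H]GABA added: 8 nM plus 32 nM unlabeled for 4 min (mGAT1/3/4), 20 nM plus 20 nM for 10 min (mGAT2). Filtration, scintillation counting; nonspecific uptake with 10 mM (mGAT1/3/4) or 100 mM GABA (mGAT2); pIC50.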

IC50 (mGAT4; Experiment No. 1, preincubation time 10 min, read-out: pIC50 mGAT4 (converted)): 1.35 µM
IC50 (mGAT4; Experiment No. 1, preincubation time 25 min, read-out: pIC50 mGAT4 (converted)): 1.05 µM
IC50 (mGAT4; Experiment No. 1, preincubation time 60 min, read-out: pIC50 mGAT4 (converted)): 0.912 µM
IC50 (mGAT4; Experiment No. 2, preincubation time 10 min, read-out: pIC50 mGAT4 (converted)): 2.69 µM
IC50 (mGAT4; Experiment No. 2, preincubation time 25 min, read-out: pIC50 mGAT4 (converted)): 1.86 µM
IC50 (mGAT4; Experiment No. 2, preincubation time 60 min, read-out: pIC50 mGAT4 (converted)): 1.23 µM
IC50 (mGAT4; Experiment No. 3, preincubation time 10 min, read-out: pIC50 mGAT4 (converted)): 2.69 µM
IC50 (mGAT4; Experiment No. 3, preincubation time 25 min, read-out: pIC50 mGAT4 (converted)): 1.48 µM
IC50 (mGAT4; Experiment No. 3, preincubation time 60 min, read-out: pIC50 mGAT4 (converted)): 1.66 µM
IC50 (mGAT4; Experiment No. 4, preincubation time 25 min, read-out: pIC50 mGAT4 (converted)): 2 µM
IC50 (mGAT4; Experiment No. 4, preincubation time 60 min, read-out: pIC50 mGAT4 (converted)): 0.617 µM
IC50 (mGAT4; Experiment No. 5, preincubation time 25 min, read-out: pIC50 mGAT4 (converted)): 1.58 µM
IC50 (mGAT4; Experiment No. 5, preincubation time 60 min, read-out: pIC50 mGAT4 (converted)): 1.26 µM
IC50 (mGAT4; Experiment No. 6, preincubation time 25 min, read-out: pIC50 mGAT4 (converted)): 1.38 µM
IC50 (mGAT4; Experiment No. 6, preincubation time 60 min, read-out: pIC50 mGAT4 (converted)): 1.02 µM
Normalized pIC50 mGAT4 (mGAT4; preincubation time 10 min, experiments 1-3, relative to 25 min = 100.00): 97.98
IC50 (mGAT4; preincubation time 10 min, experiments 1-3, read-out: Average pIC50 mGAT4 (converted)): 2.14 µM
Normalized pIC50 mGAT4 (mGAT4; preincubation time 25 min, experiments 1-3 (reference)): 100.00
IC50 (mGAT4; preincubation time 25 min, experiments 1-3, read-out: Average pIC50 mGAT4 (converted)): 1.41 µM
Normalized pIC50 mGAT4 (mGAT4; preincubation time 25 min, experiments 4-6 (reference)): 100.00
IC50 (mGAT4; preincubation time 25 min, experiments 4-6, read-out: Average pIC50 mGAT4 (converted)): 1.62 µM
Normalized pIC50 mGAT4 (mGAT4; preincubation time 60 min, experiments 1-3, relative to 25 min = 100.00): 101.08
IC50 (mGAT4; preincubation time 60 min, experiments 1-3, read-out: Average pIC50 mGAT4 (converted)): 1.23 µM
Normalized pIC50 mGAT4 (mGAT4; preincubation time 60 min, experiments 4-6, relative to 25 min = 100.00): 104.26
IC50 (mGAT4; preincubation time 60 min, experiments 4-6, read-out: Average pIC50 mGAT4 (converted)): 0.933 µM
IC50 (mGAT3): 10.5 µM
SMILES: COc1ccc(C(OCCN2CCCC(C(=O)O)C2)(c2ccc(C=O)cc2)c2ccc(OC)cc2)cc1 (racemic) [5 a, rac‐ 1‐{2‐[(4‐Formylphenyl)bis(4‐methoxyphenyl)methoxy]ethyl}piper‐idine‐3‐carboxylic acid]
